Laboratory results from US4223041A, “Urea derivatives to treat anxiety and aggressivity” (Labaz, priority 1976, dated 1980).
Like-named read-outs stand apart in the source and are kept apart here.

How the values were obtained:
[1] = Action on the pentylenetetrazole-induced seizure (anticonvulsant activity); assay type: in vivo, mouse
Experimental: The purpose of this test which is carried out on mice is to determine whether the compounds of the invention, when given preventively by oral route, are capable at certain doses of protecting some of the animals against the epileptic seizure produced by a predetermined dose of pentylenetetrazole which would be 100% fatal in the absence of the compound.
The compound to be studied was administered fifteen minutes before an injection of 125 mg/kg of pentylenetetrazole and note was taken of the number of deaths occurring during the three hours following this injection. The results were expressed in percentage of protection of the animals against death at the dose studied.

[2] = Action with respect to tremorine (cholinolytic properties); assay type: in vivo, mouse; settings: 170 mg/kg oral, mice, 30 min before 100 mg/kg i.p. tremorine
Experimental: This test has been described by EVERETT (Nature, 1956, 177-238)
When injected into mice, tremorine produces peripheral cholinergic effects i.e. weeping, hypersalivation, sedation, diarrhea as well as central cholinergic effects i.e. tremors, akinesia.
Batches of 10 mice separated into individual cages, were given the compound to be studied, by oral route, 30 minutes before administration of an intraperitoneal dose of 100 mg/kg of tremorine.
Note was then taken in each batch of the percentage of animals presenting the various symptoms of tremorine-induced poisoning since at such a dose of tremorine 100% of the control animals are poisoned.
The results hereunder are expressed in percentage of mice protected against tremor at the dose of the compound of the invention which was administered: […]

[3] = "Electrically-provoked combat" test (anxiolytic action); assay type: in vivo, mouse; settings: Mus musculus, 0.5 h; 71 mg/kg, mice, 30 min before test; read-out: % of decrease in number of combats
Text: Under certain conditions, a pair of mice reacts to an electric stimulus by a series of combats which are provoked by the anxiety felt by the animals as a result of the electric shock. This anxiety is expressed by a combat with the other animal which is rendered responsible. For this reason, the test described hereunder can be considered as a means of evaluating the anxiolytic action of a compound. Two mice which have been previously on a diet consisting only of water are placed together in a cage. They are then submitted to a series of electric impulses of an intensity varying between 40 and 80 volts according to the sensitivity of the animals. The test is first carried out with untreated animals as controls and then with the same animals treated 30 minutes before the test with a dose of the compound to be studied.
Note is taken on the number of combats engaged. The results are expressed in percentage of decrease in the number of combats engaged by the treated animals in comparison with the number of combats registered before treatment.

[4] = Four plates test (anxiolytic action); assay type: in vivo, mouse; settings: 0.5 h; 105 mg/kg oral, mouse, 30 min after administration; read-out: % of protection against anxiety
Text: This test, which is specific to the anxiolytics, was undertaken with the mouse, thirty minutes after the oral administration of the compound to be studied.
It consists in placing mice in a box with fairly high walls, of which the bottom comprises four square plates. These plates, which all have the same dimensions, are separated from each other by a central axis and are alternately electrified by the positive and negative poles of a source of electric current. There is a space of a few millimeters between adjacent plates.
The mouse placed in this apparatus explores it and thus passes over the different plates in succession. Note is taken of the number of times each animal passes over the plates during one minute. When the current is switched on, the mouse passing over the plates receives an electric shock (80 V), which provokes a gradual decrease in the exploratory movements, and finally brings the animals to a complete stop.
Anxiolytic agents enable the animals to become more or less indifferent to the electric shock.
The percentage of protection against anxiety given by compounds of the invention was calculated by comparing the number of times the control animals passed over the plates when electrified with the number of times the treated animals passed over the electrified plates.

[5] = rota rod test (neurotoxicity); assay type: in vivo, mouse; settings: 370 mg/kg oral, mice, 30 min after administration
Experimental: The test used was that known as the rota rod test described by BOISSIER (Therapie 1958 XIII pp. 1074-1118).
This test aims at determining the ability of mice to coordinate their movements by seeing to what extent they can remain on a roller turning at a rate of 4 revolutions per minute for two minutes. The trial was carried out thirty minutes after administration by oral route of the compound to be studied and the percentage of failures was noted.
The value of this test is twofold. Failure on the part of the animals gives a very early indication of the slightest damage to the meuromuscular functions which cannot be discerned by any other means. Secondly, this test serves as an element of comparison for drawing up index figures involving the results obtained with other tests.

[6] = cited from earlier work
[7] = Anxiolytic and antiaggressive properties and separation from sedation (general statements); settings: in vivo
[8] = Arch. Int. Pharmacodyn 219, 104-115 (1976)

SMILES: C#CC(CC)(CC)NC(N)=O [Compound C, 1-(1,1-Diethyl-2-propynyl)-urea]
- responders at 70 mg/kg ([1]; Mus musculus, po, 3 h, read-out: % of protection against death): 50%
- anticonvulsant activity (in words) ([1]; pentylenetetrazole-induced seizure, mice, oral): considerable
- % of protection against tremor [2]: 0%
- inhibition in vivo at 71 mg/kg [3]: 50%
- inhibition in vivo at 105 mg/kg [4]: 50%
- % of failures in rota rod test [5]: 50%

SMILES: CCCCNC(N)=O [n-butyl-urea]
- pharmacological properties (in words) ([6]; Arch. Int. Pharmacodyn 208, 204-212 (1974)): properties similar to those cited hereabove with respect to tert-butyl-urea

SMILES: CCCC(CCC)(CCC)NC(=O)NC(=O)c1ccccc1 [1-(1,1-di-n-propyl-n-butyl)-3-benzoyl-urea]
- anxiolytic and antiaggressive activity (in words) [7]: inactive or practically devoid of any anxiolytic or antiaggressive activity

SMILES: CCCC(CCC)(CCC)NC(=O)NC(C)=O [1-(1,1-di-n-propyl-n-butyl)-3-acetyl-urea]
- anxiolytic and antiaggressive activity (in words) [7]: inactive or practically devoid of any anxiolytic or antiaggressive activity

SMILES: CC(C)(C)NC(N)=O [tert-butyl-urea]
- pharmacological properties (in words) [6, 8]: anticonvulsant, hypnotic and sedative properties
- potentiation of hypnotic effects of the barbiturates [6, 8]: potentiator of the hypnotic effects of the barbiturates
